Reference: patent US20260273076A1, “PHARMACEUTICAL COMPOSITIONS AND METHOD OF TREATMENT OF METASTATIC AND OTHER CANCERS” (Favorite Pharmaceuticals, priority 2023, published 2026)
Like-named read-outs stand apart in the source and are kept apart here.

Tests used:
HCT-116 spheroids = assay: HCT-116 spheroid viability / mitochondrial staining, high-content imaging (Example 1); type: cell-based; details: 72 hours
Procedure: Monolaurin was also similarly compared as a non-pegylated Lauric acid control.
HCT-116 cells were cultured according to ATCC guidelines and spheroids containing the cells were incubated in plate maps. […] After 72 hours of incubation, the images were taken at 10× with a 25-step z-stack in […] on a Molecular Devices imager.
On the day of dosing, C12 (C12=C12-Ether-PEG-1000), C-18 (C18=C18-amide-PEG-1000) and monolaurin were reconstituted in DMSO to make stock solutions of 60 mM. Lauric Acid and Polyethylene Glycol were also reconstituted in DMSO to make stock solutions of 120 mM. C-12, C-18 and monolaurin stock solutions were then serially diluted at half-log steps in DMSO and then diluted 100× in maintenance media. Lauric Acid and monomethoxy polyethylene glycol MW 1000 (PEG) were serially diluted in DMSO and then diluted 200× in maintenance media. Dosing done according to manufacturer's protocol.
DMSO concentrations were kept consistent across all wells at 0.5%. Following dosing, Plate 1 & 2 were incubated in a 37° C., 5% CO2 incubator for 72 hours. Plate 1 was removed from incubation between 60 and 180 min timepoints for imaging. Well A05 in Plate 1 was imaged in bright field at 10× while incubated in the imager at 37° C. Images were taken at 5-minute intervals for 120 mins. Following imaging, Plate 1 was immediately placed back into 37° C., 5% C02 incubator. […]

HCT-116 cells = details: HCT-116 2-D, 72 hours
Procedure: Cells were incubated for 72 hours in a 37° C./5% CO2 incubator. […] At the conclusion of the 72-hour timepoint, cells were labeled with 6 μL/mL MitoTracker Deep Red and 1:250 Viability Dye.
Following labeling, cells were fixed in 10% neutral buffer formalin and permeabilized with 0.2% Triton X-100 in 1×PBS. Cells were then labeled with 1:500 Hoechst 33342 Ready Flow™ Reagent And 5 μL/mL Alexa Fluor 488 phalloidin.
Cells were then imaged at 20× widefield using a Molecular Devices ImageXpress Micro Confocal High-Content imaging platform. The scan laser/dichromic settings were tuned for 405, 488, 647, and 730 nm excitation wavelengths. Images were acquired and saved as 16-bit 2048×2048 TIF files for further processing. A grid of the sites at well centers was acquired during image capture.
The images were then analyzed using nuclear, phalloidin, and MitoTracker Channels. The number of cells was determined for each. Viable and non-viable cells were determined using colocalization of the nuclear channel and the viability dye images after thresholding. Phalloidin and MitoTracker cell object intensity distributions were quantified using cellular objects positive for phalloidin and MitoTracker. Statistical analysis was performed using GraphPad Prism statistical software. Nonlinear regression was used as a curve fitting tool to determine compound efficacy.

[1] = system: human pancreatic cancer (BXPC3) cells
Procedure: In this example, human pancreatic cancer (BXPC3) cells were grown on microscope slides for 24 hours prior to administration of test articles. […] Imaging was at 10× with photographs taken once every five minutes.
The timeline proceeds from left to right.

[2] = system: PDX derived cell line models (pancreatic cancer patients) in co-culture with human dermal fibroblasts; assay: Cypre 3D Oncology in vitro patient-derived xenograft (PDX) Panel (Example 11); type: cell-based; details: treated four days, 5 patients
Procedure: In this example, a Cypre PDX assay was carried out in 5 different pancreatic cancer patients using 5 test compounds. […] The endpoint from this assay was tumor size and DRAQ7 staining.
PDX Tumor cells were expanded in 2D cell culture and then grown in 3D hydrogels, co-embedded with human dermal fibroblasts (HDF). […] After, 3D assays were stained with Hoechst and DRAQ7, fixed, and analyzed using a high content imager and proprietary image analysis software.

BXPC3 cells = system: BXPC3 cells
Source text: Molecular crowding occurs when high concentrations of macromolecules reduce the volume of solvent available for other molecules in the solution, effecting the properties of cellular water. […] An increase in dry mass on addition of drug to the cells reflects uptake of the conjugate into the intracellular space. […] The method has been used to evaluate a dose response relationship and the characteristic response patterns of specific cell types to selected polyethylene glycol fatty acid conjugated structures.

[3] = system: human pancreatic cancer (BX PC3) cells; details: 200 micromolar, 24 hours
[4] = system: A549, HL-60, Raji B, Panc-1, and PC3 cancer cell lines; details: 4-5 h period, 5 cell lines

CCCCCCCCCCCC(=O)O [Lauric Acid]
effect on cell viability, treatment vs control (HCT-116 spheroids): no difference between treatment and control

polyethylene glycol octadecyl ether [C18-Ether-PEG-5000]
MitoTracker intensities (HCT-116 cells): no effects | concentration at which total cell death / death of all the cells occurred (HCT-116 cells): 100 µM | cell destruction vs no drug control ([1]; 300 μM, 24 hours of incubation): completely destroyed | effect on existing cell mass / clusters ([1]; 300 μM, after 19 hours): dissociation of the accumulated mass and loss of cellular motility and death | kill kinetic ([1]; BXPC3, 300 μM (Example 3)): 19 h | DRAQ7 cell death assay: activity in comparison with standard of care [2]: equal to standard of care | Tumor Total area: activity in comparison [2]: equal to standard of care

polyethylene glycol octadecyl ether [C18-Ether-PEG-1000]
MitoTracker intensities (HCT-116 cells): modest effect | concentration at which total cell death / death of all the cells occurred (HCT-116 cells): 50 µM | effects on cell viability (HCT-116 cells): strong effects on cell viability | effect on cells ([1]; 100 μM and 200 μM, 24 hours of incubation): drastic with both concentrations | cell kill at lower vs higher concentration ([1]; 100 μM vs 200 μM, 24 hours): less cell kill at the lower concentration | effect on a cluster of cells ([1]; 200 μM, 1-hour period): membrane disruption and cell death | time to cell fragmentation after dosing ([1]; 200 uM, single cell): ≤ 60 min | time post dosing to membrane disruption leading to cell death (BXPC3 cells): ≤ 40 min | drop of cell mass (BXPC3 cells; first study (FIG. 17A)): 3 fold | time post dosing of phase drop in dry mass (BXPC3 cells; first study (FIG. 17A)): 30 to 50 min | cell mass decrease, factor (BXPC3 cells; repeat study (FIG. 17D)): 2 | time of major phase drop after the addition of the drug (BXPC3 cells; repeat study (FIG. 17D)): about 25 minutes | number of cells in clusters vs no drug control [3]: significantly reduced | cell death ([4]; 50 μM): 80% | cell death ([4]; 100 μM): 100%

CCCCCCCCCCCCCCCCCCNc1c(NCCOCCOCCOCCOCCOCCOCCOCCOCCOCCOCCOCCOCCOCCOCCOCCOCCOCCOCCOCCOCCOCCOC)c(=O)c1=O [C18-Squaramide-PEG-1000, 3-((2,5,8,11,14,17,20,23,26,29,32,35,38,41,44,47,50,53,56,59,62,65-docosaoxa-heptahexacontan-67-yl)amino)-4-(octadecylamino)cyclobut-3-ene-1,2-dione]
Tumor Total area: activity in comparison [2]: similarity in activity
